In series [1] the test system is high affinity Compound 1 (Aβ lowering) site on SWE293 cells. Briefly: Flow cytometry labelling of SWE293 cells with Compound 3. The class given is cell-based. As for the experimental part:
SWE293 cells were successfully labelled with 5 nM of Compound 3 for flow cytometry analysis (excitation 488 nm, emission 510 (+/−10) nm) to give a four fold increase in fluorescence intensity over background unlabeled cells, consistent with the binding site being in relatively low abundance. At 5 nM concentration this compound only labels the high affinity Compound 1 (Aβ lowering) site. In the presence of 1 μM 5-(S)-[N′-((S)-3,5-Difluorophenyl-α-hydroxyacetyl)-L-alaninyl]amino-7-methyl-5,7-dihydro-6H-dibenz[b,d]azepin-6-one (Example 29), (which is sufficient to completely displace all specifically bound Compound of Example 28 at >>5 nM)), the signal was reduced by 20% (p<0.001), after background subtraction. Compound 3 is obviously a very hydrophobic molecule (log P>3), and the non displaceable signal is almost certainly due to non-specific partitioning into cell membranes.
Background: A flow cytometer gives signals particle by particle.

Another series can be described thus: log P. It counts as physicochemical.
In series [2] the test system is Aβ production in 293 cells. Briefly: Inhibition of Aβ production in 293 cells. The class given is cell-based. The note with it: Homo sapiens, HEK293, whole cell.
For series [3], the system named is low affinity Compound 1 site, membranes obtained from 293 cells. Briefly: Competition with 3H-Compound 1 binding to membranes from 293 cells, low affinity site. The note with it: 293 cell membranes, n=2. As for the experimental part: (§1) The compound of Example 28 (Compound 3) was also tested. The high affinity ^3H-N-[8-N′-((2-(R/S)-hydroxy-2-(3,5-difluorophenyl)-acetyl-L-alaninyl)-L-phenylglycine)-3,6-dioxaoctyl]-4,4-difluoro-5,7-dimethyl-4-bora-3α,4α-diaza-s-indacene-3-propionamide (Compound 3) binding site mediates the Aβ lowering activity of Compound 1, whereas the low affinity site is irrelevant to Aβ lowering. […] This wide separation in high and low affinity Ki's (7741.5; n=2) affords a wide window of concentrations of Compound 3 where binding of the compound is almost exclusively to the high affinity Compound 1 site.

The target of series [4] is high affinity Compound 1 binding site (Aβ lowering) in 293 membranes (Homo sapiens, UniProt P49768). Briefly: Saturation binding of 3H-Compound 1 in 293 membranes, high affinity site. As for the experimental part:
(§2) The pharmacological profile of ^3H-5-(S)-(N′-((S)-(+)-2-Hydroxy-3-methylbutyryl)-L-alaninyl)amino-7-methyl-5,7-dihydro-6H-dibenz[b,d]azepin-6-one (Compound 1 from Example 30) has been studied in 293 membranes. There are two distinct binding components in the membrane preparations. Saturation binding analysis utilizing 0-50 pM and 0-150 nM ^3H-Compound 1 reveal two sites (KD1=52.7 pM [Bmax1=710 fmol/mg protein]; KD2=32.5 nM [Bmax2=34.4 pmol/mg protein]).
as §1

Series [5] deals with low affinity Compound 1 site in 293 membranes. The experiment in a line: Saturation binding of 3H-Compound 1 in 293 membranes, low affinity site. The note with it: 0-150 nM 3H-Compound 1, 293 membranes, read-out: KD2. As for the experimental part:
as §2, §1

The term logP denotes a log measure of how a compound divides between an organic and an aqueous phase. The IC50 is the concentration that gives 50% inhibition. By Ki is commonly meant the dissociation constant of the complex between target and ligand, obtained from inhibition or displacement. `Cc1cc(C)n2c1C=C1C=CC(CCC(=O)NCCOCCOCCNC(=O)C(NC(=O)C(C)NC(=O)C(O)c3cc(F)cc(F)c3)c3ccccc3)=[N+]1[B-]2(F)F` (racemic) [Compound 3, N-[8-N′-((2-(R/S)-hydroxy-2-(3,5-difluorophenyl)-acetyl-L-alaninyl)-L-phenylglycinyl)amino-3,6-dioxaoctyl]-4,4-difluoro-5,7-dimethyl-4-bora-3α,4α-diaza-s-indacene-3-propionamide]: the “increase in fluorescence intensity over background unlabeled cells” value in series [1] (SWE293 cells labelled with 5 nM, flow cytometry, excitation 488 nm, emission 510 (+/−10) nm) is on record as “four fold”. This compound also had a logP in “log P” greater than 3. In addition, in series [2], the IC50 stood at 0.585 nM. Further, the affinity in series [3], expressed as Ki, was 574 nM.

Consider `CC(C)[C@H](O)C(=O)N[C@@H](C)C(=O)NC1C(=O)N(C)c2ccccc2-c2ccccc21` (stereo partly drawn) [Compound 1, 5-(S)-(N′-((S)-(+)-2-Hydroxy-3-methylbutyryl)-L-alaninyl)amino-7-methyl-5,7-dihydro-6H-dibenz[b,d]azepin-6-one], for which, in series [4], the Bmax1 is recorded as 710 fmol/mg protein. The Kd in series [5] came to 32.5 nM.

For `C[C@H](NC(=O)[C@@H](O)c1cc(F)cc(F)c1)C(=O)N[C@@H]1C(=O)N(C)c2ccccc2-c2ccccc21` [Example 29, 5-(S)-[N′-((S)-3,5-Difluorophenyl-α-hydroxyacetyl)-L-alaninyl]amino-7-methyl-5,7-dihydro-6H-dibenz[b,d]azepin-6-one], the “reduction of Compound 3 fluorescence signal” value in series [1] (1 μM competitor, SWE293 cells labelled with 5 nM Compound 3, after background subtraction, p<0.001) worked out at 20%.

For the origin of these results see patent publication US6486350B1, “Biological reagents and methods for determining the mechanism in the generation of β-amyloid peptide” (Elan Pharmaceuticals Inc., priority 1998, dated 2002).
